Assay results published in US20250326748A1, “COMPOUNDS AND METHODS FOR MODULATING SPLICING” (REMIX THERAPEUTICS INC., priority 2022, published 2025).
Counter-ions that a name gives are not always drawn. Like-named read-outs stand apart in the source and are kept apart here.

Assays:
[1] = tested on: MYB mRNA; experiment: Splicing RT-qPCR assay, MYB canonical (CJ) and alternative (AJ) junction mRNA; assay type: cell-based, human; conditions: Homo sapiens; for IC50: canonical junction mRNA; for AC50: alternative junction mRNA, read-out: MYB AJ (AC50, increase in AJ mRNA)
Summary of the method: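 A673 cells (DMEM, 10% FBS) or K562 cells (IMDM, 10% FBS) were treated for 24 h at 37° C with an 11-point 3-fold dilution series, top dose 10 uM, DMSO ≤0.25%. Canonical and alternative junction mRNA was measured in lysates by one-step RT-qPCR. Normalization used PPIA for A673 and GAPDH or GUSB for K562.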

[2] = tested on: Target C; experiment: HiBiT protein abundance assay, Target C (K562 HiBiT knock-in); assay type: cell-based, human; conditions: HiBiT knock-in cells, 24 hours
Summary of the method: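 K562 HiBiT knock-in cells (10000/well) in IMDM + 1% FBS were treated for 24 h at 37° C. with a 10-point 3-fold dilution series (top 10 μM final), with DMSO ≤0.25%. Unmodified K562 served as baseline. HiBiT lytic luminescence was normalized to controls, and IC50 was interpolated at 50% from a four-parameter fit.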

[3] = qPCR panel, read-out: MYB CJ (decrease in CJ mRNA levels, IC50)
[4] = RT-qPCR, A673 or K562 cells, 24 hours treatment
[5] = RT-qPCR, A673 or K562 cells, 24 hours treatment, read-out: MYB CJ (IC50, decrease in CJ mRNA)

IC50 [1, 3] [nM] | IC50 [1, 5] [nM] | IC50 [2] [nM] | Compound | AC50 [1, 4] [nM]
< 100 | < 100 | 100 to 1000 | Cc1c(O)c(-c2ccc3cc(N4CCNCC4)cnc3n2)cc2cn(C)nc12 [Compound 137, 2,7-dimethyl-5-[6-(piperazin-1-yl)-1,8-naphthyridin-2-yl]indazol-6-ol] | < 100
100 to 1000 | 100 to 1000 | 100 to 1000 | Cc1c(O)c(-c2cc(Cl)c3cc(NC4CCNC4)cnc3n2)cc2cn(C)nc12 (stereo not drawn) [Compound 146, 5-[4-chloro-6-(359pyrrolidine-3-ylamino)-1,8-naphthyridin-2-yl]-2,7-dimethylindazol-6-ol] | < 100
< 100 | < 100 | < 100 | Cc1c(O)c(-c2ccc3cc(N4CCC(NCC5CC5)C4)cnc3n2)cc2cn(C)nc12 (stereo not drawn) [Compound 105, 5-(6-{3-[(cyclopropylmethyl)amino]pyrrolidin-1-yl}-1,8-naphthyridin-2-yl)-2,7-dimethylindazol-6-ol] | < 100
100 to 1000 | 100 to 1000 | 1000 to 10000 | Cn1cc2cc(-c3ccc4cc(NC5CCNCC5)cnc4n3)c(O)c(F)c2n1 [Compound 285] | 100 to 1000
< 100 | < 100 | 100 to 1000 | CCN[C@H]1CCN(c2cnc3nc(-c4cc5cn(C)nc5c(C)c4O)ccc3c2)C1 [Compound 123] | < 100
< 100 | < 100 | < 100 | Cn1cc2cc(-c3ccc4cc(N5CC[C@@H](NCC6CC6)C5)cnc4n3)c(O)c(F)c2n1 [Compound 135, 5-{6-[(3R)-3-[(cyclopropylmethyl)amino]330pyrrolidine-1-yl]-1,8-naphthyridin-2-yl}-7-fluoro-2-methylindazol-6-ol] | < 100
< 100 | < 100 | < 100 | CCNC1CCN(c2cnc3nc(-c4cc5cn(C)nc5c(F)c4O)ccc3c2)C1 (stereo not drawn) [Compound 106, 5-{6-[3-(ethylamino)pyrrolidin-1-yl]-1,8-naphthyridin-2-yl}-7-fluoro-2-methylindazol-6-ol] | < 100

Continued, compound first:

Compound | IC50 [1, 3] [nM] | IC50 [1, 5] [nM] | IC50 [2] [nM] | AC50 [1, 4] [nM]
CN[C@@H]1CCN(c2cnc3nc(-c4cc(C)c5nc(C)cn5n4)cc(Cl)c3c2)C1 [Compound 341] | < 100 | < 100 | < 100 | < 100
CN[C@H]1CCN(c2cnc3nc(-c4cc5cn(C)nc5c(C)c4O)cc(Cl)c3c2)C1.Cl [Compound 287] | < 100 | < 100 | 100 to 1000 | < 100
C[C@@H]1CN(c2cnc3nc(-c4cc(C#N)c5nn(C)cc5c4)cc(Cl)c3c2)C[C@H](C)N1 [Compound 325, 5-(4-chloro-6-((3R,5S)-3,5-dimethylpiperazin-1-yl)-1,8-naphthyridin-2-yl)-2-methyl-2H-indazole-7-carbonitrile 2,2,2-trifluoroacetate] | 100 to 1000 | 100 to 1000 | > 10000 | 1000 to 10000
CN(c1cnc2nc(-c3cc4cn(C)nc4c(F)c3O)ccc2c1)C1CCNCC1 [Compound 284] | 100 to 1000 | 100 to 1000 | 1000 to 10000 | 100 to 1000
Cc1cn2cc(-c3cc(Cl)c4cc(N5C[C@@H](C)N[C@@H](C)C5)cnc4n3)cc(F)c2n1 [Compound 297] | 100 to 1000 | 100 to 1000 | 1000 to 10000 | 100 to 1000
CN(C)C1CCN(c2cnc3nc(-c4cc5cn(C)nc5cc4O)ccc3c2)CC1 [Compound 316] | 100 to 1000 | 100 to 1000 | 1000 to 10000 | 100 to 1000
Cc1c(O)c(-c2ccc3cc(N4CCC(N(C)C)CC4)cnc3n2)cc2cn(C)nc12 [Compound 138, 5-{6-[4-(dimethylamino)piperidin-1-yl]-1,8-naphthyridin-2-yl}-2,7-dimethylindazol-6-ol] | 100 to 1000 | 100 to 1000 | 1000 to 10000 | 100 to 1000
Cc1cn2nc(-c3ccc4c(Cl)c(N5C[C@H](C)N[C@@H](C)C5)cnc4n3)cc(C)c2n1 [Compound 393, 5-chloro-2-{2,8-dimethylimidazo[1,2-b]pyridazin-6-yl}-6-[(3S,5S)-3,5-dimethylpiperazin-1-yl]-1,8-naphthyridine] | < 100 | < 100 | 100 to 1000 | < 100
CCN[C@H]1CCN(c2cnc3nc(-c4cc5cn(C)nc5cc4O)cc(Cl)c3c2)C1 [Compound 318] | < 100 | < 100 | 100 to 1000 | < 100
CN[C@@H]1CCN(c2cnc3nc(-c4cc5cn(C)nc5c(C)c4O)ncc3c2)C1 [Compound 107, 2,7-dimethyl-5-{6-[(3R)-3-(methylamino)pyrrolidin-1-yl]pyrido[2,3-d]pyrimidin-2-yl}indazol-6-ol hydrochloride] | < 100 | < 100 | < 100 | < 100
CNC1CCN(c2cnc3nc(-c4cc5cn(C)nc5c(C)c4O)ncc3c2)C1 (stereo not drawn) [Compound 104, 2,7-dimethyl-5-{6-[3-(methylamino)pyrrolidin-1-yl]pyrido[2,3-d]pyrimidin-2-yl}indazol-6-ol] | < 100 | < 100 | 100 to 1000 | < 100
